≈ marks a conversion by molar mass, not a printed value.

For the experiment, the system named is Mycobacterium tuberculosis. Kind of experiment: Antitubercular activity against Mycobacterium tuberculosis H37Rv. The experiment is classed as functional.
In the case of `CCCCCCCCCCCCCCCCCC(=O)NCCCN(C[C@H]1OC(O)[C@H](O)[C@@H](O)[C@H]1O)C(=O)CCCCCCCCCCCCCCCCC` (stereo partly specified), the MIC (in general, the least concentration at which growth counts as inhibited) was above 50 µg/mL.
`CCCCCCCCCCCCCCCC(=O)NCCCN(C[C@H]1O[C@@H]2OC(C)(C)O[C@@H]2[C@H]2OC(C)(C)O[C@H]21)C(=O)CCCCCCCCCCCCCCC` showed an MIC above 50 µg/mL.
In the case of `CCCCCCCCCCCCCCCC(=O)NCCN(C[C@H]1O[C@@H]2OC(C)(C)O[C@@H]2[C@H]2OC(C)(C)O[C@H]21)C(=O)CCCCCCCCCCCCCCC`, the MIC is above 50 µg/mL.
On to `CCCCCCCCCCCCCCCCCC(=O)NCCNC[C@H]1O[C@@H]2OC(C)(C)O[C@@H]2[C@H]2OC(C)(C)O[C@H]21`, for which the MIC is below 3.12 µg/mL.
For `CCCCCCCCCCCCCCCCCC(=O)NCCN(C[C@H]1OC(O)[C@H](O)[C@@H](O)[C@H]1O)C(=O)CCCCCCCCCCCCCCCCC` (stereo partly specified) the value was above 50 µg/mL.
For `CC1(C)O[C@H]2[C@@H](O1)[C@@H](CNCCO)O[C@@H]1OC(C)(C)O[C@@H]12` the value was above 50 µg/mL; for `CCCCCCCCCCCCCCCCCC(=O)NCCCNC[C@H]1O[C@@H]2OC(C)(C)O[C@@H]2[C@H]2OC(C)(C)O[C@H]21`, 12.5 µg/mL (≈ 21.4 µM).
`CCCCCCCCCCCCCCCCCC(=O)OCCN(C[C@H]1O[C@@H]2OC(C)(C)O[C@@H]2[C@H]2OC(C)(C)O[C@H]21)C(=O)CCCCCCCCCCCCCCCCC`: the MIC is above 50 µg/mL.
For `CCCCCCCCCCCCCCCCCC(=O)N(CCO)C[C@H]1O[C@@H]2OC(C)(C)O[C@@H]2[C@H]2OC(C)(C)O[C@H]21` the value was 25 µg/mL (≈ 43.9 µM); for `CC1(C)O[C@H]2[C@@H](O1)[C@@H](CNCCCN)O[C@@H]1OC(C)(C)O[C@@H]12`, above 50 µg/mL.
Then `CO[C@H]1/C=C/O[C@@]2(C)Oc3c(C)c(O)c4c(O)c(c(/C=N/N5CCN(C)CC5)c(O)c4c3C2=O)NC(=O)/C(C)=C\C=C\[C@H](C)[C@H](O)[C@@H](C)[C@@H](O)[C@@H](C)[C@H](OC(C)=O)[C@@H]1C` [RIFAMPIN], with 1 µg/mL (≈ 1.22 µM).

For the origin of these results see ChEMBL document CHEMBL1148009, “Synthesis of amphiphilic galactopyranosyl diamines and amino alcohols as antitubercular agents” (2007).
